{
  "source": "paper PMC10145360",
  "about": "“Antiplatelet Aggregation Properties of Cirsilineol: A Novel Inhibitor of Blood Coagulation Factor Xa” (Pharmaceuticals, 2023)",
  "key": {"[1]": {"test_system": "collagen and epinephrine-induced pulmonary thrombosis", "experiment": "Acute pulmonary thrombosis induced by collagen and epinephrine", "type": "in vivo, mouse", "details": "for Mortality %: then collagen + epinephrine, mice; for Scored thrombus formation (Thrombi), lung: graded as thrombi per 25 mm^2 lung field", "description": "Mice were separated into several groups after being fasted overnight (10 animals each). CSL was dissolved in DMSO and given intravenously to each mouse. After 1 h, the animals received an injection of collagen and epinephrine mixture (500 μg/kg each) to induce acute thrombosis. Each mouse was closely observed for 15 min to see if it had recovered from the acute thrombosis challenge, had been paralyzed, or had passed away. H&E-stained lung tissue slices from five mice were randomly selected for the histologic investigation to determine the extent of pulmonary thrombus development. The number of arteries greater than 20 μm in diameter with any detectable thrombus was counted in each of the five view fields randomly selected from the left lobe in each section (one section per mouse). Twenty-five fields for each group were compared as a result. A total of 60–80 vessels in each segment were imaged using the system (Leica, Germany). The results were graded as the number of thrombi per 25 mm^2 lung field as previously described."}, "[2]": {"test_system": "platelet-poor plasma (PPP)", "experiment": "Ex vivo aPTT clotting time after intravenous injection", "type": "in vivo, mouse", "details": "mice, intravenous", "description": "(§1) First, the potential cytotoxicity of […] on HUVECs was assessed using the 3-(4,5-dimethylthiazol-2-yl)-2,5-diphenyltetrazolium bromide (MTT) assay. […] The activated partial thromboplastin time (aPTT) and prothrombin time (PT), two coagulation parameters altered by CSL in vitro, were assessed first. We used the direct FXa inhibitor rivaroxaban as a positive control for our experiments. […] In the aPTT experiments, rivaroxaban at 8.38 μM and CSL at 7.23 μM, respectively, doubled the clotting time. Each mouse group (n = 5) received intravenous injections of CSL for 4 consecutive days to validate the in vitro results in an ex vivo experiment. […] In the ex vivo aPTT assays, treatment with CSL at 0.25 mg/kg and rivaroxaban at 0.29 mg/kg, respectively, doubled the clotting time. The average blood volume was determined to be 2 mL based on an estimated circulating blood volume for mice of 72 mL/kg and an average weight of 27 g for each animal used in this investigation. As a result, the estimated concentration of CSL in the peripheral blood after each injection ([…]) was 2.5, 5, 10, or 20 μM, respectively.\n(§2) Figure 2 Effects of CSL on clotting time. (A) Platelet-poor plasma (PPP) was incubated with the indicated concentrations of CSL or rivaroxaban (Riva) for 15 min. (B) One hour after administering DMSO, CSL, or Riva, blood was collected from the mice, and PPP was obtained. Then, in vitro aPTT (A) or ex vivo aPTT was measured, as described in the Methods sections. Data are shown as mean values ± SD of five independent experiments. * p < 0.05 vs. D. D = 0.2% DMSO, used as the vehicle control.\nMale C57BL/6 mice aged 7 weeks (mean weight: 27 g) were purchased from Orient Bio Co., in Sungnam, Republic of Korea, and were subjected to a 12-day acclimatization phase. […]\n(§3) Plasma was taken by centrifuging blood (2000× g for 10 min) at room temperature following dimethyl sulfoxide (DMSO) or CSL administration for 1 h to assess PT and aPTT using a thrombotimer (Behnk Elektronik, Norderstedt, Germany). […] Next, the clotting time was measured."}, "[3]": {"test_system": "platelet-poor plasma (PPP)", "experiment": "In vitro aPTT clotting time in platelet-poor plasma", "set-up": "species or system human", "details": "PPP incubated 15 min", "description": "as §2\n(§4) Ten fasting healthy volunteers (aged 24–28; six women and four men) who were free of allergies, cardiovascular problems, carbohydrate, or lipid metabolic abnormalities and had not taken any morning medication had their blood samples taken. None of our subjects used addictive drugs or antioxidant food supplements, and their diets were well balanced. The plasma from the blood samples was immediately spun down (1300× g for 15 min) to separate it from sodium citrate (10.9 mM) and pooled for the following investigations. Next, human blood samples were spun down at room temperature to rapidly separate the PRP. The PRP concentration was adjusted to 1 × 10^9 platelets/mL using a hemocytometer. After being rinsed once in HEPES buffer containing 1 mM CaCl2, the PRP pellet was maintained at room temperature for an additional 30 min. Then, 10 mL of the platelet samples were utilized to measure each clotting time point. The IRB of Kyungpook National University Hospital (Daegu, Republic of Korea) approved this study protocol (KNUH 2012-01-010).\nPlasma was taken by centrifuging blood (2000× g for 10 min) at room temperature following dimethyl sulfoxide (DMSO) or CSL administration for 1 h to assess PT and aPTT using a thrombotimer (Behnk Elektronik, Norderstedt, Germany). Micronized silica was utilized as an activator for the aPTT test. Briefly, 100 μL of platelet-poor plasma (PPP) and 100 μL of aPTT assay reagent were combined for 1 min at 37 °C, 100 µL of CaCl2 (20 mM) was added, and the clotting times were noted. […] Next, the clotting time was measured."}, "[4]": {"test_system": "platelet-poor plasma (PPP)", "experiment": "Prothrombin time (PT) after administration to mice", "type": "in vivo, mouse", "details": "administered to mice; data not shown", "description": "as §1, §3"}, "[5]": {"test_system": "human platelet-rich plasma (PRP)", "experiment": "In vitro agonist-induced platelet aggregation (aggregometer)", "type": "cell-based", "description": "Figure 3 Effects of CSL on agonist-induced platelet aggregation. Platelet-rich plasma (PRP) was preincubated for 5 min with different concentrations of CSL, Riva, or the vehicle. […] Data are shown as mean values ± SD of five independent experiments. * p < 0.05 vs. D. D = 0.2% DMSO, used as the vehicle control.\nas §4\nCSL dissolved in DMSO was incubated with human PRP for a specified time (1, 3, 5, or 10 min). […]"}, "[6]": {"test_system": "FeCl3-induced carotid artery thrombosis", "experiment": "FeCl3-induced carotid artery thrombosis model", "type": "in vivo, mouse", "details": "mice", "description": "A mouse model of FeCl3-induced thrombosis was created and used. Male C57BL/6 mice were starved for the entire night before receiving intravenous injections of the relevant drug in 0.2 mL of DMSO and were allowed to sleep. The carotid artery of the animal was exposed. The adventitial surface was covered with a cotton thread (200 μm in diameter) soaked in FeCl3 solution (0.25 M) for 5 min. The wound was flushed with saline solution once the thread had been removed. […] We measured the size and rate of thrombus formation, and we graded our results as follows: no thrombus or small thrombus (75–50 μm), medium thrombus (150–100 μm), massive thrombus (300–200 μm), and more than three thrombi. It was also noted how long it took for an extensive thrombus to obstruct the carotid artery following endothelial damage caused by FeCl3."}, "platelets": {"test_system": "platelets", "details": "cited from earlier work"}},
  "note": "Marks after values point to notes of the source that are not given here.",
  "data": [
    {"compound": "O=C(NC[C@H]1CN(c2ccc(N3CCOCC3=O)cc2)C(=O)O1)c1ccc(Cl)s1", "note": "[Rivaroxaban, rivaroxaban, reference compound]", "values": [
      {"measurement": "Mortality %", "setting": "[1]; 0.13 mg/kg intravenous", "value": "85 ^# %"},
      {"measurement": "Scored thrombus formation (Thrombi), lung", "setting": "[1]; 0.13 mg/kg intravenous", "value": "3.1 ± 0.1"},
      {"measurement": "Mortality %", "setting": "[1]; 0.26 mg/kg intravenous", "value": "75 ^# %"},
      {"measurement": "Scored thrombus formation (Thrombi), lung", "setting": "[1]; 0.26 mg/kg intravenous", "value": "2.6 ± 0.1"},
      {"measurement": "Mortality %", "setting": "[1]; 0.51 mg/kg intravenous", "value": "55 ^# %"},
      {"measurement": "Scored thrombus formation (Thrombi), lung", "setting": "[1]; 0.51 mg/kg intravenous", "value": "1.9 ± 0.2"},
      {"measurement": "dose that doubled the clotting time (ex vivo aPTT)", "setting": "[2]", "value": 0.29, "unit": "mg/kg"},
      {"measurement": "concentration that doubled the clotting time (in vitro aPTT)", "setting": "[3]", "value": 8.38, "unit": "µM"},
      {"measurement": "PT", "setting": "[4]", "value": "did not change"},
      {"measurement": "platelet aggregation induced by ADP", "setting": "[5]; ADP 10 μM", "value": "did not affect"},
      {"measurement": "platelet aggregation induced by U46619", "setting": "[5]; U46619 6 μM", "value": "did not affect"},
      {"measurement": "platelet aggregation induced by collagen", "setting": "[5]; collagen 1 μg/mL", "value": "did not affect"},
      {"measurement": "platelet aggregation induced by thrombin", "setting": "[5]; thrombin 3 U/mL", "value": "did not affect"},
      {"measurement": "Scored thrombus formation", "setting": "[6]; 0.13 mg/kg intravenous", "value": "3.5 ± 0.1"},
      {"measurement": "Time to Large Thrombus Formation", "setting": "[6]; 0.13 mg/kg intravenous", "value": "15.3 ± 1.1", "unit": "min"},
      {"measurement": "Scored thrombus formation", "setting": "[6]; 0.26 mg/kg intravenous", "value": "3.1 ± 0.3"},
      {"measurement": "Time to Large Thrombus Formation", "setting": "[6]; 0.26 mg/kg intravenous", "value": "21.8 ± 1.9", "unit": "min"},
      {"measurement": "Scored thrombus formation", "setting": "[6]; 0.51 mg/kg intravenous", "value": "2.3 ± 0.1"},
      {"measurement": "Time to Large Thrombus Formation", "setting": "[6]; 0.51 mg/kg intravenous", "value": "44.3 ± 3.1", "unit": "min"},
      {"measurement": "platelet aggregation", "setting": "platelets; blood taken from patients on rivaroxaban treatment", "value": "decreased platelet aggregation"},
      {"measurement": "platelet aggregation brought on by collagen, ADP, thromboxane A2, or thrombin", "setting": "platelets; previous studies", "value": "not to affect"}
    ]}
  ]
}
